Assay results as given in ChEMBL document CHEMBL3352569, “Design, synthesis and structure-activity relationship studies of novel sirtuin 2 (SIRT2) inhibitors with a benzamide skeleton” (Bioorg Med Chem, 2015).

Columns and labels:
[1] = target: T1, NAD-dependent protein deacetylase sirtuin-1 (Homo sapiens, UniProt Q96EB6); test: Inhibition of human SIRT1
T1 sequence (Q96EB6 whole entry): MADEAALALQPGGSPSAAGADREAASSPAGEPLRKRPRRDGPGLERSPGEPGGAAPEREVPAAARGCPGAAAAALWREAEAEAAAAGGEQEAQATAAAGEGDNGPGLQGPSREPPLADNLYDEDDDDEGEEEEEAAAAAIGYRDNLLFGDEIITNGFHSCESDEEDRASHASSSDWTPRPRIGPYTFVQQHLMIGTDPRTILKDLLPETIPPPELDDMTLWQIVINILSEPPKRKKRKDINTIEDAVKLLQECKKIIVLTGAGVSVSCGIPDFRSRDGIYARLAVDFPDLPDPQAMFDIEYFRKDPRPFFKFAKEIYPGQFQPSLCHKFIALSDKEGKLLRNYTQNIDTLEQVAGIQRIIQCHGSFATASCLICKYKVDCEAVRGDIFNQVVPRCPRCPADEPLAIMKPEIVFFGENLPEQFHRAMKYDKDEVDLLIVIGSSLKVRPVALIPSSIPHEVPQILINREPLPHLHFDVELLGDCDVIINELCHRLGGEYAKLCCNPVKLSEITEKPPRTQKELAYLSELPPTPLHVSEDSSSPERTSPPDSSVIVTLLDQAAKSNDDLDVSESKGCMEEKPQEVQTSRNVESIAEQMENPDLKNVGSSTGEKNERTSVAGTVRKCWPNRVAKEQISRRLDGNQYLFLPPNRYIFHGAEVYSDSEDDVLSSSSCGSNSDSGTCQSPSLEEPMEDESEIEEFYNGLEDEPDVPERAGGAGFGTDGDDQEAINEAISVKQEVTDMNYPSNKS

[2] = target: T2, NAD-dependent protein deacetylase sirtuin-3, mitochondrial (Homo sapiens, UniProt Q9NTG7); test: Inhibition of human SIRT3
T2 sequence (Q9NTG7 whole entry): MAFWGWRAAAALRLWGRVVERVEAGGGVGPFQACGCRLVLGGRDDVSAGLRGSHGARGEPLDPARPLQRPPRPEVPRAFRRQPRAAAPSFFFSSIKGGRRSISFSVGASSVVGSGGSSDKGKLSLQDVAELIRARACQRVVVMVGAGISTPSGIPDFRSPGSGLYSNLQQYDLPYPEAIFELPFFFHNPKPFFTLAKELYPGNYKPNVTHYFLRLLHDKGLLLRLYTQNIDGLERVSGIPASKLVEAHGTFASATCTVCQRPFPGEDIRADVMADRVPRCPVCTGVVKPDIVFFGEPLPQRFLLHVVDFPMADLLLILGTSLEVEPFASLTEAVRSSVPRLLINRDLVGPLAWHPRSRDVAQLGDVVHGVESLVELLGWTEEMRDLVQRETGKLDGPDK

[3] = target: T3, NAD-dependent protein deacetylase sirtuin-2 (Homo sapiens) (UniProt Q8IXJ6); test: Inhibition of GST-tagged human recombinant SIRT2 (34 to 356 residues) expressed in Escherichia coli BL21 at 10 uM using Fluor de Lys-SIRT as substrate incubated for 60 mins prior to substrate addition measured after 45 mins by fluorimetric analysis
T3 sequence (whole entry): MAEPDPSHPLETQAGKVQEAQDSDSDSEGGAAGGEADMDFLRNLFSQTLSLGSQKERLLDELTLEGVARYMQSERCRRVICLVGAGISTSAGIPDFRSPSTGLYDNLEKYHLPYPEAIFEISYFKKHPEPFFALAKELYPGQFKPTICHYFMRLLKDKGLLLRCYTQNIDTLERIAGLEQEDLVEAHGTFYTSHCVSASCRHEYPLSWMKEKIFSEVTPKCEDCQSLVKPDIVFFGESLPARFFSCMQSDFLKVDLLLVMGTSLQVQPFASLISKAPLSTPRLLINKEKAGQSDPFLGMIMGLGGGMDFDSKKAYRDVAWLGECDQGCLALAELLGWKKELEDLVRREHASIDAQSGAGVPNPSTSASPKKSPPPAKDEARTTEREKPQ

[4] = target: T3, NAD-dependent protein deacetylase sirtuin-2 (Homo sapiens); test: Inhibition of GST-tagged human recombinant SIRT2 (34 to 356 residues) expressed in Escherichia coli BL21 at 50 uM using Fluor de Lys-SIRT as substrate incubated for 60 mins prior to substrate addition measured after 45 mins by fluorimetric analysis
[5] = target: T4, NAD-dependent protein deacetylase sirtuin-2 (Homo sapiens, UniProt Q8IXJ6); test: Inhibition of GST-tagged human recombinant SIRT2 (34 to 356 residues) expressed in Escherichia coli BL21 using Fluor de Lys-SIRT as substrate incubated for 60 mins prior to substrate addition measured after 45 mins by fluorimetric analysis
T4 sequence (Q8IXJ6 whole entry): T3 sequence (whole entry)

[6] = target: T3, NAD-dependent protein deacetylase sirtuin-2 (Homo sapiens); settings: 25 uM
Description: Inhibition of human recombinant SIRT2 at 25 uM

[7] = target: T1, NAD-dependent protein deacetylase sirtuin-1; test: Inhibition of human recombinant SIRT1 using Fluor de Lys-SIRT as substrate incubated for 60 mins prior to substrate addition measured after 45 mins by fluorimetric analysis
[8] = target: T2, NAD-dependent protein deacetylase sirtuin-3, mitochondrial; test: Inhibition of human recombinant SIRT3 using Fluor de Lys-SIRT as substrate incubated for 60 mins prior to substrate addition measured after 45 mins by fluorimetric analysis

SMILES	inhibition [3]	inhibition [4]	IC50 [5]	also measured
O=C(Nc1cccc(Br)c1)c1cccc(S(=O)(=O)N2CCCCCC2)c1	–	–	–	IC50 [1]: > 50 µM; IC50 [2]: > 50 µM
O=C(Nc1cccc(NC(=O)c2ccccc2)c1)c1ccccc1	3%	10%	–	–
O=C(Nc1cccc(NC(=O)c2cccc(Br)c2)c1)c1cc(Cl)cc(Cl)c1	0%	10%	–	–
COc1ccc(C(=O)Nc2cccc(NC(=O)c3ccccc3Br)c2)cc1	10%	31%	–	–
O=C(Nc1cccnc1)c1cccc(-c2ccc3ccccc3c2)c1	–	–	3.3 µM	–
O=C(Nc1cccc(-c2ccc3ccccc3c2)c1)c1ccccc1Br	39%	56%	–	–
O=C(Nc1cccnn1)c1cccc(-c2ccc3ccccc3c2)c1	–	–	0.9 µM	–
O=C(Nc1ccncc1)c1cccc(-c2ccc3ccccc3c2)c1	–	–	16 µM	–
Cc1cccc(C(=O)Nc2cccc(NC(=O)c3ccccc3Br)c2)c1	18%	24%	–	–
N#C/C(=C\c1ccc(-c2cc(Cl)ccc2Cl)o1)C(=O)Nc1cccc2ncccc12	–	–	–	IC50 [1]: > 50 µM
COc1cccc(C(=O)Nc2cccc(-c3ccc4ccccc4c3)c2)c1	8%	44%	–	–
CC(C(=O)Nc1cccc(/N=C/c2c(O)ccc3ccccc23)c1)c1ccccc1 (centres undefined)	–	–	–	inhibition [6]: 80%
COc1ccc(C(=O)Nc2cccc(NC(=O)c3cccc(Br)c3)c2)cc1	4%	0%	–	–
O=C(Nc1cnccc1Br)c1cccc(-c2ccc3ccccc3c2)c1	–	–	0.6 µM	IC50 [7]: > 100 µM; IC50 [8]: > 100 µM
O=C(Nc1ccccc1)c1cccc(-c2ccc3ccccc3c2)c1	21%	14%	–	–
Cc1ccccc1C(=O)Nc1cccc(NC(=O)c2ccccc2Br)c1	1%	0%	–	–
O=C(Nc1ccccn1)c1cccc(-c2ccc3ccccc3c2)c1	–	–	22 µM	–
O=C(Nc1cccc(NC(=O)c2ccccc2Br)c1)c1cccc(Br)c1	0%	19%	–	–
O=C(Nc1cc[nH]n1)c1cccc(-c2ccc3ccccc3c2)c1	–	–	42 µM	–
O=C(Nc1cccc(-c2ccc3ccccc3c2)c1)c1cccc(Br)c1	19%	43%	–	–

SMILES	inhibition [3]	inhibition [4]	IC50 [5]	also measured
COc1ccccc1C(=O)Nc1cccc(NC(=O)c2ccccc2Br)c1	10%	28%	–	–
COc1cccc(NC(=O)c2cccc(-c3ccc4ccccc4c3)c2)c1	29%	66%	–	–
COc1ccccc1NC(=O)c1cccc(-c2ccc3ccccc3c2)c1	51%	89%	11 µM	–
O=C(Nc1cccc(NC(=O)c2ccccc2Br)c1)c1ccccc1	8%	28%	–	–
O=C(Nc1nccs1)c1cccc(-c2ccc3ccccc3c2)c1	–	–	12 µM	–
O=C(Nc1cccc(NC(=O)c2ccccc2Br)c1)c1ccccc1Br	3%	49%	–	–
COc1ccccc1C(=O)Nc1cccc(NC(=O)c2cccc(Br)c2)c1	11%	39%	–	–
O=C(Nc1cnccn1)c1cccc(-c2ccc3ccccc3c2)c1	–	–	6.2 µM	–
O=C(Nc1ncccn1)c1cccc(-c2ccc3ccccc3c2)c1	–	–	13 µM	–
COc1cccc(C(=O)Nc2cccc(NC(=O)c3ccccc3Br)c2)c1	4%	19%	–	–
COc1ccccc1C(=O)Nc1cccc(-c2ccc3ccccc3c2)c1	10%	47%	–	–
O=C(Nc1nc[nH]n1)c1cccc(-c2ccc3ccccc3c2)c1	–	–	57 µM	–
O=C(Nc1ccnnc1)c1cccc(-c2ccc3ccccc3c2)c1	–	–	6.3 µM	–
Nc1ccccc1NC(=O)c1cccc(-c2ccc3ccccc3c2)c1	22%	29%	–	–
O=C(Nc1cccc(Br)c1)c1cccc(-c2ccc3ccccc3c2)c1	23%	46%	–	–
O=C(Nc1cccc(NC(=O)c2cc(C(F)(F)F)cc(C(F)(F)F)c2)c1)c1cccc(Br)c1	3%	12%	–	–
O=C(Nc1ccccc1Br)c1cccc(-c2ccc3ccccc3c2)c1	64%	95%	5.3 µM	–
O=C(Nc1cccc(NC(=O)c2cccc(Br)c2)c1)c1cccc(Br)c1	7%	12%	–	–
O=C(Nc1ccccc1[N+](=O)[O-])c1cccc(-c2ccc3ccccc3c2)c1	30%	76%	–	–
